Results taken from US7488832B2, “Azolylacylguanidines as β-secretase inhibitors” (Wyeth, priority 2005, dated 2009).
pIC50: −log10 of the molar value.

The compounds below were run against human BACE1 (Homo sapiens, UniProt P56817) (assay: Fluorescent kinetic assay, human BACE1 (FRET peptide substrate WABC-6)). Conditions: not given.
Type: biochemical
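Further: fluorescence monitored at excitation 320 nm and emission 420 nm over 30 min, with the substrate cleavage rate taken as the linear slope of the signal.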

Sequence of human BACE1 (P56817 46-501): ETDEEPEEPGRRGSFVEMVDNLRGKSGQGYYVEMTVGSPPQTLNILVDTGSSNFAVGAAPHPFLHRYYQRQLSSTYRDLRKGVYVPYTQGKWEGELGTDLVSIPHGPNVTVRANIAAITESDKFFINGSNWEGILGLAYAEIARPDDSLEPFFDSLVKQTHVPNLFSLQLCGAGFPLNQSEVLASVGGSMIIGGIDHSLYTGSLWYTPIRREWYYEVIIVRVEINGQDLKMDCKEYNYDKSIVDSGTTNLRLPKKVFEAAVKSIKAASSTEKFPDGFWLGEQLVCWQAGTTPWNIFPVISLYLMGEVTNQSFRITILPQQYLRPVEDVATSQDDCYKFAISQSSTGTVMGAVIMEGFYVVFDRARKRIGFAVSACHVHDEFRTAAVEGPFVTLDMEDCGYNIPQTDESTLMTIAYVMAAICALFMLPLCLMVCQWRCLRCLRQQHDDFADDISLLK

Compound	pIC50
N/C(=N/C(=O)Cn1c(-c2ccccc2)ccc1C12CC3CC(CC(C3)C1)C2)NCCCO [Example 395]	6.00 to 6.96
N=C(NCc1cccc(N)c1)NC(=O)Cn1c(-c2ccccc2)ccc1C12CC3CC(CC(C3)C1)C2 [Example 421]	6.00 to 6.96

Same assay, conditions: fluorescent kinetic assay, 25 μM substrate WABC-6, pH 4.5, room temperature; read-out: IC50 (μM) BACE 1

Compound	IC50 [µM]
4-n-propyl-piperidine [Example 185]	1.1 to 5
Cc1ccc(-c2ccc(-c3ccc(Cl)s3)n2CC(=O)N=C(N)N)cc1 [Example 110]	1.1 to 5
COc1ccc(OC)c(-c2ccc(-c3ccc(Oc4ccccc4)cc3)n2CC(=O)N=C(N)N)c1 [Example 133]	1.1 to 5
COc1ccc(OC)c(-c2ccc(-c3ccc(Oc4ccc(C(C)=O)cc4)cc3)n2CC(=O)N=C(N)N)c1 [Example 135]	0.11 to 1
COc1cccc(-c2ccc(-c3ccc4ccccc4c3)n2CC(=O)N=C(N)N)c1 [Example 147]	1.1 to 5
NC(N)=NC(=O)Cn1c(-c2ccccc2)ccc1-c1ccc(C(=O)N2CCSC2)cc1 [Example 169]	1.1 to 5
CC1CCN(C(=O)c2ccc(-c3ccc(-c4ccccc4)n3CC(=O)N=C(N)N)cc2)CC1 [Example 170]	1.1 to 5
Cc1cccc(C(=O)Nc2ccc(-c3ccc(-c4ccccc4)n3CC(=O)N=C(N)N)cc2)c1 [Example 236]	1.1 to 5
NC(N)=NC(=O)Cn1c(-c2ccccc2)ccc1-c1ccc(NC(=O)COc2ccccc2)cc1 [Example 242]	1.1 to 5
NC(N)=NC(=O)Cn1c(-c2ccccc2)ccc1-c1ccc(NS(=O)(=O)c2ccc(Cl)s2)cc1 [Example 258]	1.1 to 5
C=CCCOc1ccc(-c2ccc(-c3ccccc3)n2CC(=O)N=C(N)N)cc1 [Example 273]	1.1 to 5
CC[C@H](C)COc1ccc(-c2ccc(-c3ccccc3)n2CC(=O)N=C(N)N)cc1 [Example 283]	1.1 to 5
NC(=NC(=O)Cn1c(-c2ccc(Oc3ccccc3)cc2)ccc1-c1ccccc1Cl)NCCCO [Example 310]	0.11 to 1
C=CCCCOc1ccc(-c2ccc(-c3ccccc3Cl)n2CC(=O)NC(=N)NCCCO)cc1 [Example 313]	0.11 to 1
N#CCCCCOc1ccc(-c2ccc(-c3ccccc3Cl)n2CC(=O)N=C(N)NCCCO)cc1 [Example 314]	0.01 to 0.1
C=CCCCCOc1ccc(-c2ccc(-c3ccccc3Cl)n2CC(=O)N=C(N)NCCCO)cc1 [Example 315]	0.11 to 1
N/C(=N/C(=O)Cn1c(-c2ccc(OCCC3OCCO3)cc2)ccc1-c1ccccc1Cl)NCCCO [Example 316]	0.11 to 1
CCCCCOc1ccc(-c2ccc(-c3ccccc3Cl)n2CC(=O)/N=C(/N)NCCCO)cc1 [Example 317]	0.11 to 1
N#Cc1ccc(-c2ccc(-c3ccccc3)n2CC(=O)N=C(N)NCCCO)cc1 [Example 318]	1.1 to 5
CC(C)c1ccc(-c2ccc(-c3ccccc3)n2CC(=O)N=C(N)NCCCO)cc1 [Example 319]	0.11 to 1
CCCc1ccc(-c2ccc(-c3ccccc3)n2CC(=O)N=C(N)NCCCO)cc1 [Example 320]	0.11 to 1
CCCCc1ccc(-c2ccc(-c3ccccc3)n2CC(=O)N=C(N)NCCCO)cc1 [Example 321]	0.11 to 1
CC(C)Cc1ccc(-c2ccc(-c3ccccc3)n2CC(=O)N=C(N)NCCCO)cc1 [Example 322]	0.11 to 1
CCCCCc1ccc(-c2ccc(-c3ccccc3)n2CC(=O)N=C(N)NCCCO)cc1 [Example 323]	0.11 to 1

Compound	IC50 [µM]
CCCCOc1ccc(-c2ccc(-c3ccccc3)n2CC(=O)N=C(N)NCCCO)cc1 [Example 324]	0.11 to 1
NC(=NC(=O)Cn1c(-c2ccccc2)ccc1-c1ccc(-c2ccccc2)cc1)NCCCO [Example 325]	0.11 to 1
NC(=NC(=O)Cn1c(-c2ccccc2)ccc1-c1ccc(C2CCCCC2)cc1)NCCCO [Example 327]	0.11 to 1
NC(=NC(=O)Cn1c(-c2ccccc2)ccc1-c1ccc(Oc2ccccc2)cc1)NCCCO [Example 328]	0.11 to 1
CC(=O)c1ccc(Oc2ccc(-c3ccc(-c4ccccc4)n3CC(=O)N=C(N)NCCCO)cc2)cc1 [Example 329]	0.11 to 1
N#Cc1ccc(-c2ccc(-c3ccccc3)n2CC(=O)N=C(N)NCc2ccc(F)c(F)c2F)cc1 [Example 330]	1.1 to 5
CC(C)c1ccc(-c2ccc(-c3ccccc3)n2CC(=O)N=C(N)NCc2ccc(F)c(F)c2F)cc1 [Example 331]	1.1 to 5
CCCc1ccc(-c2ccc(-c3ccccc3)n2CC(=O)N=C(N)NCc2ccc(F)c(F)c2F)cc1 [Example 332]	0.11 to 1
CCCCc1ccc(-c2ccc(-c3ccccc3)n2CC(=O)N=C(N)NCc2ccc(F)c(F)c2F)cc1 [Example 333]	0.11 to 1
CCCCOc1ccc(-c2ccc(-c3ccccc3)n2CC(=O)N=C(N)NCc2ccc(F)c(F)c2F)cc1 [Example 334]	0.11 to 1
NC(=NC(=O)Cn1c(-c2ccccc2)ccc1-c1ccc(C2CCCCC2)cc1)NCc1ccc(F)c(F)c1F [Example 336]	0.11 to 1
NC(=NC(=O)Cn1c(-c2ccccc2)ccc1-c1ccc(Oc2ccccc2)cc1)NCc1ccc(F)c(F)c1F [Example 337]	0.11 to 1
CC(=O)c1ccc(Oc2ccc(-c3ccc(-c4ccccc4)n3CC(=O)N=C(N)NCc3ccc(F)c(F)c3F)cc2)cc1 [Example 338]	1.1 to 5
CCN/C(N)=N\C(=O)Cn1c(-c2ccccc2)ccc1C12CC3CC(CC(C3)C1)C2 [Example 390]	0.11 to 1
CCCN/C(N)=N\C(=O)Cn1c(-c2ccccc2)ccc1C12CC3CC(CC(C3)C1)C2 [Example 391]	0.11 to 1
CCCCCN/C(N)=N\C(=O)Cn1c(-c2ccccc2)ccc1C12CC3CC(CC(C3)C1)C2 [Example 392]	1.1 to 5
N#CCCCNC(=N)NC(=O)Cn1c(-c2ccccc2)ccc1C12CC3CC(CC(C3)C1)C2 [Example 393]	0.11 to 1
CC(=O)OCCNC(N)=NC(=O)Cn1c(-c2ccccc2)ccc1C12CC3CC(CC(C3)C1)C2 [Example 394]	0.11 to 1
N/C(=N/C(=O)Cn1c(-c2ccccc2)ccc1C12CC3CC(CC(C3)C1)C2)NCCO [Example 396, 2-[2-(1-adamantyl)-5-phenyl-1H-pyrrol-1-yl]-N-{(1E)-amino[(2-hydroxyethyl)-amino]methylene}acetamide]	0.11 to 1
N#CCCN/C(N)=N\C(=O)Cn1c(-c2ccccc2)ccc1C12CC3CC(CC(C3)C1)C2 [Example 397]	0.11 to 1
N/C(=N\C(=O)Cn1c(-c2ccccc2)ccc1C12CC3CC(CC(C3)C1)C2)NCCCCO [Example 400, 2-[2-(1-Adamantyl)-5-phenyl-1H-pyrrol-1-yl]-N-{(1E)-amino[(4-hydroxybutyl)amino]-methylene}acetamide]	0.11 to 1
NC(=NC(=O)Cn1c(-c2ccccc2)ccc1C12CC3CC(CC(C3)C1)C2)NCc1ccco1 [Example 401]	1.1 to 5
NC(=NC(=O)Cn1c(-c2ccccc2)ccc1C12CC3CC(CC(C3)C1)C2)NCC1CCCO1 (stereo not shown) [Example 402]	0.11 to 1
CC(O)CNC(N)=NC(=O)Cn1c(-c2ccccc2)ccc1C12CC3CC(CC(C3)C1)C2 (stereo not shown) [Example 404]	0.11 to 1

Compound	IC50 [µM]
CC(O)CNC(N)=NC(=O)Cn1c(-c2ccccc2)ccc1C12CC3CC(CC(C3)C1)C2 (stereo not shown) [Example 405]	0.11 to 1
N=C(NCC(O)CO)NC(=O)Cn1c(-c2ccccc2)ccc1C12CC3CC(CC(C3)C1)C2 (stereo not shown) [Example 406]	0.11 to 1
CC(C)CNC(N)=NC(=O)Cn1c(-c2ccccc2)ccc1C12CC3CC(CC(C3)C1)C2 [Example 407]	1.1 to 5
NC(=NC(=O)Cn1c(-c2ccccc2)ccc1C12CC3CC(CC(C3)C1)C2)NCC(F)(F)F [Example 408]	0.11 to 1
CCOC(=O)CCCNC(N)=NC(=O)Cn1c(-c2ccccc2)ccc1C12CC3CC(CC(C3)C1)C2 [Example 409]	1.1 to 5
N=C(NCCCn1ccnc1)NC(=O)Cn1c(-c2ccccc2)ccc1C12CC3CC(CC(C3)C1)C2 [Example 413]	1.1 to 5
COCCCNC(N)=NC(=O)Cn1c(-c2ccccc2)ccc1C12CC3CC(CC(C3)C1)C2 [Example 414]	0.11 to 1
COCCNC(N)=NC(=O)Cn1c(-c2ccccc2)ccc1C12CC3CC(CC(C3)C1)C2 [Example 415]	0.11 to 1
NC(=NC(=O)Cn1c(-c2ccccc2)ccc1C12CC3CC(CC(C3)C1)C2)NCC(F)(F)C(F)(F)F [Example 416]	0.11 to 1
NC(=NC(=O)Cn1c(-c2ccccc2)ccc1C12CC3CC(CC(C3)C1)C2)NC1CCCCCC1 [Example 417]	0.11 to 1
C=CCNC(=O)c1ccc(-c2ccc(-c3ccccc3)n2CC(=O)N=C(N)NCc2nnc(C)o2)cc1 [Example 423]	0.11 to 1
C=CCNC(=O)c1ccc(-c2ccc(-c3ccccc3)n2CC(=O)N=C(N)NCc2nc(C)cs2)cc1 [Example 424]	0.11 to 1
C=CCNC(=O)c1ccc(-c2ccc(-c3ccccc3)n2CC(=O)N=C(N)NCCc2cccs2)cc1 [Example 425]	0.11 to 1
C=CCNC(=O)c1ccc(-c2ccc(-c3ccccc3)n2CC(=O)N=C(N)NCc2cccc(N)c2)cc1 [Example 426]	0.11 to 1
CCS(=O)(=O)N/C(N)=N\C(=O)Cn1c(-c2ccccc2)ccc1C12CC3CC(CC(C3)C1)C2 [Example 431, 2-[2-(1-adamantyl)-5-phenyl-1H-pyrrol-1-yl]-N-{(1Z)-amino[(ethyl-sulfonyl)amino]methylene}acetamide]	0.11 to 1
CCC(=O)c1ccc(-c2ccc(-c3ccccc3)n2CC(=O)NC(=N)N)cc1 [Example 447]	1.1 to 5
CCCCc1ccc(-c2ccc(-c3ccccc3)n2CC(=O)NC(=N)N)cc1 [Example 449]	0.11 to 1
Cc1ccc(C)c(-c2ccc(-c3ccccc3)n2CC(=O)NC(=N)N)c1 [Example 450]	0.11 to 1
N#CCc1ccc(-c2ccc(-c3ccccc3)n2CC(=O)NC(=N)N)cc1 [Example 451]	1.1 to 5
N=C(N)NC(=O)Cn1c(-c2ccccc2)ccc1-c1ccccc1C(F)(F)F [Example 452]	1.1 to 5
N#CCc1cccc(-c2ccc(-c3ccccc3)n2CC(=O)NC(=N)N)c1 [Example 453]	1.1 to 5
N#CCCc1ccc(-c2ccc(-c3ccccc3)n2CC(=O)NC(=N)N)cc1 [Example 454]	1.1 to 5
CCNC(=O)c1ccc(-c2ccc(-c3ccccc3)n2CC(=O)NC(N)=NCCCO)cc1 [Example 461, N-Ethyl-4-(1-{2-[N′-(3-hydroxy-propyl)-guanidino]-2-oxo-ethyl}-5-phenyl-1H-pyrrol-2-yl)-benzamide]	0.11 to 1
